Biological target: IDO1 (Homo sapiens, UniProt P14902)
Assay: IDO1 Human Whole Blood Assay
Format: cell-based
Settings: WBLD taken as whole blood; read-out: WBLD IC50
Protocol: Compounds to be tested were serially diluted in ten 3-fold steps in DMSO starting from 10 mM. 3 μL of compound dilutions or DMSO alone were then dispensed from the dilution plate into a polypropylene 96-well assay plate containing 97 μL of RPMI medium using an Echo 555 acoustic liquid handler (Labcyte). LPS and IFNγ was prepared in RPMI medium to a 10× of final conc. (1000 ng/mL), final concentration is 100 ng/mL.
Human whole blood was drawn in sodium heparin coated tubes from healthy internal donors. 240 μL of blood was transferred to each of the wells of a v-bottom 96 well plate. 30 μL of compound was transferred from intermediate dilution plate, and incubated for 15 min. 30 μL from stimulants was then transferred to blood and mixed thoroughly. Plate was covered with breathable membrane and incubated at 37° C. for overnight (18 h).
On day 2, isotope labeled standard solutions of kunurenine and tryptophan was made in water at 10× concentration and 30 μL was added to the blood at 3 μM final concentration. The assay plates were centrifuged at 300×G for 10 min with no brake to separate plasma from red blood cells. 60 μL of plasma samples was removed without disturbing red blood cells. Plasma was diluted with RPMI in 1:1 ratio and proteins were precipitated out with two volumes of Acetonitrile. The plates were centrifuged at 4000×G for 60 min. 20 μL of supernatant was carefully transferred to a 384 well plate containing 40 μL of 0.1% formic acid in water and analyzed by LC/MS/MS.
LC/MS/MS analyses were performed using Thermo Fisher's LX4-TSQ Quantum Ultra system. This system consists of four Agilent binary high-performance liquid chromatography (HPLC) pumps and a TSQ Quantum Ultra triple quadrupole MS/MS instrument. For each sample, 5 μL were injected onto an Atlantis T3 column (2.1 mm×150 mm, 3 μm particle size) from Waters. The mobile phase gradient pumped at 0.8 mL/min was used to elute the analytes from the column at 25° C. The elution started at 0% B increasing linearly to 25% B at 6.5 min, holding at 25% for 1 min, re-equilibrating to 10 min. Mobile phase A consisted of 0.1% formic acid in water. Mobile phase B consisted of 0.1% of formic acid in acetonitrile. Data were acquired in positive mode using a HESI interface. The operational parameters for the TSQ Quantum Ultra instrument were a spray voltage of 4000 V, capillary temperature of 380° C., vaporizer temperature 400° C., shealth gas 60 arbitrary units, Aux gas 20 arbitrary units, tube lens 85 and collision gas 1.2 mTorr. SRM chromatograms of kynurenine (Q1: 209.2>Q3:94.0) and internal standard (Q1: 215.3>Q3:98.2) were collected for 90 sec. The peak area was integrated by Xcalibur Quan software. The ratios between the kynurenine generated in the reaction and 2D6-Kynurenine spiked-in internal standard were used to generate percentage inhibition and IC50 values. Compounds were titrated and IC50's were calculated by 4 parameter sigmoidal curve fitting formula.

Sequence of IDO1 (P14902 whole entry): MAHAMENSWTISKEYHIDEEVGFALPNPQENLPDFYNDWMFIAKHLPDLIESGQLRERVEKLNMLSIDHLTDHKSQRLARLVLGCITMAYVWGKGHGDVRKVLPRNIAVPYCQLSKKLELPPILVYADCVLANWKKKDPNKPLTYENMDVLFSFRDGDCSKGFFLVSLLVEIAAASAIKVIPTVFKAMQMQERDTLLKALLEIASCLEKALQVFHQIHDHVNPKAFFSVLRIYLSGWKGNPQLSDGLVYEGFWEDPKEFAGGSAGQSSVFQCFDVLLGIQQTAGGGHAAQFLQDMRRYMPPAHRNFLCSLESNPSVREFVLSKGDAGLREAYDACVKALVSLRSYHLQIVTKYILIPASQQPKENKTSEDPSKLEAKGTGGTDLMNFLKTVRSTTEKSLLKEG

IC50 | SMILES
241 nM | Cc1cccc(F)c1OC1CCN(C(=O)Cn2nc(C(=O)N3C[C@@H](C)O[C@@H](C)C3)c3c2CCC3)CC1 [Example 138, 2-{3-[(2R,6S)-2,6-dimethylmorpholine-4-carbonyl]-5,6-dihydrocyclopenta[c]pyrazol-1(4H)-yl}-1-[4-(2-fluoro-6-methylphenoxy)piperidin-1-yl]ethan-1-one]
396 nM | Cc1ccccc1NC1CCN(C(=O)Cn2nc(C(=O)N3CCC(F)(CO)CC3)c3c2C[C@H]2C[C@@H]32)CC1 [Example 176, 2-((3bR,4aR)-3-(4-Fluoro-4-(hydroxymethyl)piperidine-1-carbonyl)-3b,4,4a,5-tetrahydro-1H-cyclopropa[3,4]cyclopenta[1,2-c]pyrazol-1-yl)-1-(4-(o-tolylamino)piperidin-1-yl)ethan-1-one]
532 nM | Cc1ccccc1SC1CCN(C(=O)Cn2nc(C(=O)N3CC[C@@H](O)[C@@H](F)C3)c3c2C[C@H]2C[C@@H]32)CC1 [Example 177, 2-((3bR,4aR)-3-((3S,4R)-3-Fluoro-4-hydroxypiperidine-1-carbonyl)-3b,4,4a,5-tetrahydro-1H-cyclopropa[3,4]cyclopenta[1,2-c]pyrazol-1-yl)-1-(4-(o-tolylthio)piperidin-1-yl)ethanone]

From patent US12576087B2, “Aryloxypiperidine pyrazole compounds as indoleamine 2,3-dioxygenase inhibitors” (Merck Sharp & Dohme LLC, priority 2018, dated 2026)
